Values quoted from earlier work, collected in US20050169988A1, “High molecular weight, lipophilic, orally ingestible bioactive agents in formulations having improved bioavailability” (Shaklee Corporation, priority 2001, published 2005).

Which Solubility in water does the source give for `COC1=C(OC)C(=O)C(C/C=C(\C)CC/C=C(\C)CC/C=C(\C)CC/C=C(\C)CC/C=C(\C)CC/C=C(\C)CC/C=C(\C)CC/C=C(\C)CC/C=C(\C)CCC=C(C)C)=C(C)C1=O` [CoQ10, 2,3-dimethoxy-5-methyl-6-decaprenyl-1,4-benzoquinone] here?
The Solubility in water was “practically insoluble in water”.
